Experimental findings from US20230117034A1, “PYRAZOLOTRIAZINES” (Bayer Aktiengesellschaft, priority 2019, published 2023) are described below.

In assay [1] the target is T1, CDK12 (nuclear staining in CAL-120 cells) (Homo sapiens, UniProt Q9NYV4).
T1 construct: endogenous in cells; host or cells: CAL-120 human breast cancer cells (DSMZ ACC 459)
Put plainly: CDK12 nuclear protein level: immunofluorescence/high content analysis (CAL-120). The class given is cell-based. As to conditions: for DC50: CAL-120 cells, 24 h, immunofluorescence, 50% reduction of nuclear CDK12 staining intensity, median, read-out: CDK12 degradation IF, DC50- [mol/l] (median); for (IC50 CDK12 high ATP) to (Degradation DC50 CDK12) ratio: ratio of IC50 CDK12 high ATP kinase assay to DC50 CDK12 degradation (IF, CAL-120). Put shortly: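 DC50 is the degrader concentration that halves nuclear CDK12 immunofluorescence relative to controls, measured by high-content imaging. CAL-120 cells were exposed to compound for 24 h at 37 °C before PFA fixation, and signal was normalized to DMSO and control wells.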

The target of assay [2] is CDK12/CycK (Homo sapiens, UniProt Q9NYV4). Description: CDK12/CycK high ATP kinase assay (TR-FRET, 2 mM ATP). The class given is biochemical. As to conditions: 2 mM ATP (high ATP); median; read-out: CDK12/CyclinK, 2 mM ATP (high ATP), IC50-[mol/l] (median). Put shortly:
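Read-out is TR-FRET (Eu-anti-rabbit IgG, anti-phospho-c-Myc Ser62 antibody, streptavidin-XL665) after EDTA stop. Reaction ran 60 min at 22 °C using 1 µM biotin-peptide and high ATP (2 mM) with roughly 0.75 nM recombinant CDK12/CycK, after 15 min compound pre-binding; normalised emission ratios yield IC50.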
Background: In TR-FRET formats the signal depends on donor and acceptor labels being close together.

Chain of CDK12/CycK (Q9NYV4 with tags, fused parts or gaps): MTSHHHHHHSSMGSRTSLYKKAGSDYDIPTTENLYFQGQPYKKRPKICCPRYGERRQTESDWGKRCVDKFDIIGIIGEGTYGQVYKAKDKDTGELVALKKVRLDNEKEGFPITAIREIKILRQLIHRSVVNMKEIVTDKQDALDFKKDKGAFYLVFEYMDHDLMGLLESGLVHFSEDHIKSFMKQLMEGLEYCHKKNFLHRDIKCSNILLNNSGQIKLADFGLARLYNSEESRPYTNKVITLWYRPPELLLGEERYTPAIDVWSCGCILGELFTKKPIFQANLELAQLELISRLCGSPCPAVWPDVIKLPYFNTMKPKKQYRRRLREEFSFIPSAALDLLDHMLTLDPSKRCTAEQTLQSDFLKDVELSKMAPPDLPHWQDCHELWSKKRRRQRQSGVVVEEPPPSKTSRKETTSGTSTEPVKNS
Chain of CDK12/CycK (O75909 1-300 partner limits assumed): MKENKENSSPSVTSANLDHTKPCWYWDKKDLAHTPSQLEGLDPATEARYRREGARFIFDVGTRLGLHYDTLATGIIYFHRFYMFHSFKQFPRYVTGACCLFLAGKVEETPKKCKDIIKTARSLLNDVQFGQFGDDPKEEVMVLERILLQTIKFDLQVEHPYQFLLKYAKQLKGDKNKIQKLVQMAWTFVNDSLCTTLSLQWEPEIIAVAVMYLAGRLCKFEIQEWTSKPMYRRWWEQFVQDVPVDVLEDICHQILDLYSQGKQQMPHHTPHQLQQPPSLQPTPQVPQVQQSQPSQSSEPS
T1 sequence (Q9NYV4 whole entry): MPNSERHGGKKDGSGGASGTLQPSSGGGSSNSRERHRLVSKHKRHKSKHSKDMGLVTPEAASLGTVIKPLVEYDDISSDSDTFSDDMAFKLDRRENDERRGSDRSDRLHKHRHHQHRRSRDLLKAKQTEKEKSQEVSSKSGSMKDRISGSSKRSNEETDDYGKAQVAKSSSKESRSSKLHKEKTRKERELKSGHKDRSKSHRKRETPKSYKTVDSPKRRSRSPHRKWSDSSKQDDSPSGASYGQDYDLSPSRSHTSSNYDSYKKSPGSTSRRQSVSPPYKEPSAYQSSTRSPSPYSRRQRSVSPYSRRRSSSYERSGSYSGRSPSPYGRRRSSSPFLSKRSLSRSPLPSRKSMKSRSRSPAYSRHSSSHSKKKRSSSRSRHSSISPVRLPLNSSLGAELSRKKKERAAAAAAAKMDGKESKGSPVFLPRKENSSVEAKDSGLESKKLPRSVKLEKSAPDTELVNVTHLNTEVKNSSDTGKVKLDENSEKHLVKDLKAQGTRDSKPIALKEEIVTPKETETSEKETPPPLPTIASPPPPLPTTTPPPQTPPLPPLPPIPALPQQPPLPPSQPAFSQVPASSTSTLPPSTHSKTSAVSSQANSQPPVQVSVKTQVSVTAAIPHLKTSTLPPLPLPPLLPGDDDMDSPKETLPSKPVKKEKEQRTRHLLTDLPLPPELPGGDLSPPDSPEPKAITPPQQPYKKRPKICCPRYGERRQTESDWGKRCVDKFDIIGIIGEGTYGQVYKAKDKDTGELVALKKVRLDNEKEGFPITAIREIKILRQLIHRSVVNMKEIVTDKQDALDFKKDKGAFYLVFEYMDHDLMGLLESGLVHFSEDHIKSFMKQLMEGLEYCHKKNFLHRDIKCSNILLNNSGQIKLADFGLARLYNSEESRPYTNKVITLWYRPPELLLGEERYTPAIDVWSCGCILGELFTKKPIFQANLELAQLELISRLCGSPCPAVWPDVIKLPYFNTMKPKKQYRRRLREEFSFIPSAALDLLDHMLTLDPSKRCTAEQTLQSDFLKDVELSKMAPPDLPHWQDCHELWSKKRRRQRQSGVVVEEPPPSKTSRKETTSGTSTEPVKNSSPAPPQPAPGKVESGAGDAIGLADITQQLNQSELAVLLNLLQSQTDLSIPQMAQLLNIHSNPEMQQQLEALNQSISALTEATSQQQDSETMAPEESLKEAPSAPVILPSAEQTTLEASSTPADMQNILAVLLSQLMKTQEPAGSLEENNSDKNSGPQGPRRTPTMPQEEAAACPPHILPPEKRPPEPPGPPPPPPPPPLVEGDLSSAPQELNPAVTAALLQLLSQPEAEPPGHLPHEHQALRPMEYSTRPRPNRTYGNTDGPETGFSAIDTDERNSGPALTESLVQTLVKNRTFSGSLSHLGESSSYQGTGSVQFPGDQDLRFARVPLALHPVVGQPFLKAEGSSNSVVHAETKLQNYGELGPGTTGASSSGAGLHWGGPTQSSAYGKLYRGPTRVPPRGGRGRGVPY
T1 sequence (O75909 whole entry partner): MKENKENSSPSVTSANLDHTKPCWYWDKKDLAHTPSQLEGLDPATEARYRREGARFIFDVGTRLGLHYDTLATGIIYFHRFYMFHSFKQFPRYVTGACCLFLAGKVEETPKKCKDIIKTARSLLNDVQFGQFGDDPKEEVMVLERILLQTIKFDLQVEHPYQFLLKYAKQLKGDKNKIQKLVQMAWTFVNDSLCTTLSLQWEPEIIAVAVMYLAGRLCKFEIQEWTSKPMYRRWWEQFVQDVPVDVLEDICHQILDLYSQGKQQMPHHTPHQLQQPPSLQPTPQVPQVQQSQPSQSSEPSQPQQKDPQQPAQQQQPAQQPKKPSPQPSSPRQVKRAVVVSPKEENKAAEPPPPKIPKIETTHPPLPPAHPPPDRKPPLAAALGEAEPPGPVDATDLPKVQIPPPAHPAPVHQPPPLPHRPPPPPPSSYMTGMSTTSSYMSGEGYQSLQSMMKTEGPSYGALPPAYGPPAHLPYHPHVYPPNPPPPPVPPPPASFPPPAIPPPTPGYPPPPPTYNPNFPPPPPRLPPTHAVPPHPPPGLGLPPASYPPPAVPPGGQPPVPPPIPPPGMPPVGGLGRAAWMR

Regarding `Brc1cnn2c(NCc3nc4ccccc4[nH]3)nc(NCCN3CCCC3)nc12` [Example 235, N4-(1H-benzimidazol-2-ylmethyl)-8-bromo-N2-(2-pyrrolidin-1-ylethyl)pyrazolo[1,5-a][1,3,5]triazine-2,4-diamine], in assay [1], the DC50 worked out at 0.104 µM and the “(IC50 CDK12 high ATP) to (Degradation DC50 CDK12) ratio” value is listed as >192. Also, the IC50 in assay [2] is > 20 µM.

As for `COc1cccc2[nH]c(CNc3nc(N4CCOCC4)nc4c(C5CC5)cnn34)nc12` [Example 213, 8-cyclopropyl-N-[(4-methoxy-1H-benzimidazol-2-yl)methyl]-2-morpholino-pyrazolo[1,5-a][1,3,5]triazin-4-amine], in assay [1], the DC50 was 0.00211 µM and the “(IC50 CDK12 high ATP) to (Degradation DC50 CDK12) ratio” value is given as 497. In assay [2], the IC50 was 1.05 µM.

With `CN1C[C@@H]2C[C@H]1CN2c1nc(NCc2nc3ccccc3[nH]2)n2ncc(Br)c2n1` [Example 219, N-[(1H-benzimidazol-2-yl)methyl]-8-bromo-2-[(1S,4S)-5-methyl-2,5-diazabicyclo[2.2.1]heptan-2-yl]pyrazolo[1,5-a][1,3,5]triazin-4-amine], in assay [1], the DC50 worked out at 0.0162 µM and the “(IC50 CDK12 high ATP) to (Degradation DC50 CDK12) ratio” value is listed as >1232. For the same compound, in assay [2], the IC50 was > 20 µM.

`CC1(C)CN(c2nc(NCc3nc4ccccc4[nH]3)n3ncc(Br)c3n2)CCN1` [Example 216, N-[(1H-benzimidazol-2-yl)methyl]-8-bromo-2-(3,3-dimethylpiperazin-1-yl)pyrazolo[1,5-a][1,3,5]triazin-4-amine]: in assay [1], the DC50 was 0.00331 µM and the “(IC50 CDK12 high ATP) to (Degradation DC50 CDK12) ratio” value is reported as >1386. Moreover, in assay [2], the IC50 was > 4.59 µM.

Consider `CN(C)[C@@H]1CCN(c2nc(NCc3nc4ccccc4[nH]3)n3ncc(Br)c3n2)C1` [Example 178, N-[(1H-benzimidazol-2-yl)methyl]-8-bromo-2-[(3R)-3-(dimethylamino)pyrrolidin-1-yl]pyrazolo[1,5-a][1,3,5]triazin-4-amine], for which, in assay [1], the DC50 turned out to be 0.0255 µM and the “(IC50 CDK12 high ATP) to (Degradation DC50 CDK12) ratio” value was >783. For the same compound, in assay [2], the IC50 was > 20 µM.

Consider `OC[C@@H]1CCCCN1c1nc(NCc2nc3cc(F)ccc3[nH]2)n2ncc(C3CC3)c2n1` [Example 191, [(2S)-1-(8-cyclopropyl-4-{[(5-fluoro-1H-benzimidazol-2-yl)methyl]amino}pyrazolo[1,5-a][1,3,5]triazin-2-yl)piperidin-2-yl]methanol], for which, in assay [1], the DC50 was determined as 0.000606 µM and the “(IC50 CDK12 high ATP) to (Degradation DC50 CDK12) ratio” value is 548. Moreover, the IC50 in assay [2] was 0.332 µM.

Consider `Fc1ccc2[nH]c(CNc3nc(N4C[C@@H]5CCCN[C@@H]5C4)nc4c(C5CC5)cnn34)nc2c1F` [Example 171, 8-cyclopropyl-N-[(4,5-difluoro-1H-benzimidazol-2-yl)methyl]-2-[(4aS,7aS)-octahydro-6H-pyrrolo[3,4-b]pyridin-6-yl]pyrazolo[1,5-a][1,3,5]triazin-4-amine], for which, in assay [1], the DC50 turned out to be 0.002 µM and the “(IC50 CDK12 high ATP) to (Degradation DC50 CDK12) ratio” value is reported as 3278. Besides, in assay [2], the IC50 is 6.56 µM.

Consider `Fc1cccc2[nH]c(CNc3nc(N4C[C@@H]5C[C@H]4CO5)nc4c(C5CC5)cnn34)nc12` [Example 183, 8-cyclopropyl-N-[(4-fluoro-1H-benzimidazol-2-yl)methyl]-2-[(1S,4S)-2-oxa-5-azabicyclo[2.2.1]heptan-5-yl]pyrazolo[1,5-a][1,3,5]triazin-4-amine], for which, in assay [1], the DC50 came out at 0.00165 µM and the “(IC50 CDK12 high ATP) to (Degradation DC50 CDK12) ratio” value is given as 6199. The IC50 in assay [2] was determined as 10.2 µM.

For `C[C@@H]1CN(c2nc(NCc3nc4c(F)c(F)ccc4[nH]3)n3ncc(C4CC4)c3n2)C[C@H](C)N1` [Example 170, 8-cyclopropyl-N-[(4,5-difluoro-1H-benzimidazol-2-yl)methyl]-2-[(3R,5S)-3,5-dimethylpiperazin-1-yl]pyrazolo[1,5-a][1,3,5]triazin-4-amine], in assay [1], the DC50 was 0.000574 µM and the “(IC50 CDK12 high ATP) to (Degradation DC50 CDK12) ratio” value came out at 5303. For the same compound, the IC50 in assay [2] was 3.04 µM.

Turning to `CN1CCN(c2nc(NCc3nc4ccccc4[nH]3)n3ncc(Br)c3n2)CC1` [Example 18, N-[(1H-benzimidazol-2-yl)methyl]-8-bromo-2-(4-methylpiperazin-1-yl)pyrazolo[1,5-a][1,3,5]triazin-4-amine], in assay [1], the DC50 came to 0.00298 µM and the “(IC50 CDK12 high ATP) to (Degradation DC50 CDK12) ratio” value is recorded as >5268. Further, in assay [2], the IC50 is > 15.7 µM.

For `OC1(C(F)(F)F)CCN(c2nc(NCc3nc4ccccc4[nH]3)n3ncc(Br)c3n2)C1` (centres unmarked) [Example 200, 1-[4-(1H-benzimidazol-2-ylmethylamino)-8-bromo-pyrazolo[1,5-a][1,3,5]triazin-2-yl]-3-(trifluoromethyl)pyrrolidin-3-ol], in assay [1], the DC50 came to 0.117 µM and the “(IC50 CDK12 high ATP) to (Degradation DC50 CDK12) ratio” value stood at 37. Besides, the IC50 in assay [2] amounted to 4.33 µM.

Regarding `O[C@H]1CCN(c2nc(NCc3nc4ccccc4[nH]3)n3ncc(Br)c3n2)C1` [Example 224, (3S)-1-(4-{[(1H-benzimidazol-2-yl)methyl]amino}-8-bromopyrazolo[1,5-a][1,3,5]triazin-2-yl)pyrrolidin-3-ol], in assay [1], the DC50 came to 0.0384 µM and the “(IC50 CDK12 high ATP) to (Degradation DC50 CDK12) ratio” value is listed as 407. The IC50 in assay [2] came out at 15.6 µM.

On to `CN(CC(C)(C)O)c1nc(NCc2nc3ccccc3[nH]2)n2ncc(Br)c2n1` [Example 238, 1-[(4-{[(1H-benzimidazol-2-yl)methyl]amino}-8-bromopyrazolo[1,5-a][1,3,5]triazin-2-yl)(methyl)amino]-2-methylpropan-2-ol], for which, in assay [1], the DC50 was 0.00649 µM and the “(IC50 CDK12 high ATP) to (Degradation DC50 CDK12) ratio” value is listed as 276. Moreover, in assay [2], the IC50 was found to be 1.79 µM.

Regarding `Fc1ccc2[nH]c(CNc3nc(N4CCNCC4)nc4c(C5CC5)cnn34)nc2c1F` [Example 174, 8-cyclopropyl-N-[(4,5-difluoro-1H-benzimidazol-2-yl)methyl]-2-(piperazin-1-yl)pyrazolo[1,5-a][1,3,5]triazin-4-amine], in assay [1], the DC50 is 0.000645 µM and the “(IC50 CDK12 high ATP) to (Degradation DC50 CDK12) ratio” value is recorded as 1851. For the same compound, in assay [2], the IC50 was determined as 1.19 µM.

Consider `O[C@H]1C[C@@H](Nc2nc(NCc3nc4ccccc4[nH]3)n3ncc(Br)c3n2)C1` [Example 234, cis-3-[(4-{[(1H-benzimidazol-2-yl)methyl]amino}-8-bromopyrazolo[1,5-a][1,3,5]triazin-2-yl)amino]cyclobutan-1-ol], for which, in assay [1], the DC50 is 0.0103 µM and the “(IC50 CDK12 high ATP) to (Degradation DC50 CDK12) ratio” value is listed as 472. Besides, the IC50 in assay [2] came out at 4.86 µM.

Take `C[C@@H]1CN(c2nc(NCc3nc4ccccc4[nH]3)n3ncc(Br)c3n2)CCN1` [Example 168, N-[(1H-benzimidazol-2-yl)methyl]-8-bromo-2-[(3R)-3-methylpiperazin-1-yl]pyrazolo[1,5-a][1,3,5]triazin-4-amine]: in assay [1], the DC50 was determined as 0.000532 µM and the “(IC50 CDK12 high ATP) to (Degradation DC50 CDK12) ratio” value was 10872. Moreover, the IC50 in assay [2] was 5.78 µM.

For `Cc1ccc2[nH]c(CNc3nc(N4C[C@H]5C[C@@H]4CO5)nc4c(C5CC5)cnn34)nc2c1` [Example 196, 8-cyclopropyl-N-[(5-methyl-1H-benzimidazol-2-yl)methyl]-2-[(1R,4R)-2-oxa-5-azabicyclo[2.2.1]heptan-5-yl]pyrazolo[1,5-a][1,3,5]triazin-4-amine], in assay [1], the DC50 was 0.0019 µM and the “(IC50 CDK12 high ATP) to (Degradation DC50 CDK12) ratio” value was 8068. In addition, the IC50 in assay [2] amounted to 15.4 µM.

Turning to `Brc1cnn2c(NCc3nc4ccccc4[nH]3)nc(N3CC4CCC(C3)N4)nc12` [Example 232, N-(1H-benzimidazol-2-ylmethyl)-8-bromo-2-(3,8-diazabicyclo[3.2.1]octan-3-yl)pyrazolo[1,5-a][1,3,5]triazin-4-amine], in assay [1], the DC50 was > 0.0036 µM. In addition, in assay [2], the IC50 is 5.28 µM.

With `Fc1ccc2[nH]c(CNc3nc(N4CCOCC4)nc4c(C5CC5)cnn34)nc2c1F` [Example 172, 8-cyclopropyl-N-[(4,5-difluoro-1H-benzimidazol-2-yl)methyl]-2-(morpholin-4-yl)pyrazolo[1,5-a][1,3,5]triazin-4-amine], in assay [1], the DC50 stood at 0.0011 µM and the “(IC50 CDK12 high ATP) to (Degradation DC50 CDK12) ratio” value was determined as 581. Besides, the IC50 in assay [2] is 0.641 µM.

Take `Brc1cnn2c(NCc3nc4ccccc4[nH]3)nc(N3CCC4(CCCN4)C3)nc12` (centres unmarked) [Example 215, N-(1H-benzimidazol-2-ylmethyl)-8-bromo-2-(1,7-diazaspiro[4.4]nonan-7-yl)pyrazolo[1,5-a][1,3,5]triazin-4-amine]: in assay [1], the DC50 is 0.00788 µM and the “(IC50 CDK12 high ATP) to (Degradation DC50 CDK12) ratio” value was >2537. Moreover, the IC50 in assay [2] is > 20 µM.

As to `Cc1ccc2[nH]c(CNc3nc(N4C[C@@H]5CCCN[C@@H]5C4)nc4c(C5CC5)cnn34)nc2c1` [Example 195, 8-cyclopropyl-N-[(5-methyl-1H-benzimidazol-2-yl)methyl]-2-[(4aS,7aS)-octahydro-6H-pyrrolo[3,4-b]pyridin-6-yl]pyrazolo[1,5-a][1,3,5]triazin-4-amine], in assay [1], the DC50 is 0.00218 µM and the “(IC50 CDK12 high ATP) to (Degradation DC50 CDK12) ratio” value worked out at 3781. Also, the IC50 in assay [2] is 8.23 µM.

As for `CC1(O)CCN(c2nc(NCc3nc4ccccc4[nH]3)n3ncc(Br)c3n2)C1` (centres unmarked) [Example 225, 1-[4-(1H-benzimidazol-2-ylmethylamino)-8-bromo-pyrazolo[1,5-a][1,3,5]triazin-2-yl]-3-methyl-pyrrolidin-3-ol], in assay [1], the DC50 is 0.0221 µM and the “(IC50 CDK12 high ATP) to (Degradation DC50 CDK12) ratio” value turned out to be 466. The IC50 in assay [2] was determined as 10.3 µM.
